Like-named read-outs stand apart in the source and are kept apart here.
Tests used:
[1] = test system: TRPA1V1; test: Intracellular calcium (Fluo-4, FLIPR) activation of TRPA1V1 cells (co-expressing TRPA1 and TRPV1) by GRAS compounds; assay type: cell-based, human;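 also: HEK293 cells co-expressing TRPA1 and TRPV1, fluorescence read at 488/514 nm after baseline subtraction, recorded every 2 s over 10 min, ionomycin 10 µM and buffer as controls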
[2] = biological target: T1, human TRPA1 (Homo sapiens, UniProt O75762, K186N/R3C/R58T); test: Intracellular calcium (Fluo-4, FLIPR) activation of TRPA1 cells by GRAS compounds; assay type: cell-based; conditions: relative to AITC 30 μM; for activation at 1000 µM: 1 mM; for activation at 1000 µM / activation at 100 µM: read-out: A1 activation, % of agonist value;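 as to all read-outs here: TRPA1-expressing cells, fluorescence read on a FLIPR Tetra (ex 488 nm, em 514 nm) every 2 s for 10 min after compound addition, baseline subtracted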
T1 construct: expressed in transfected cells; pcDNA3 control cells
T1 sequence (O75762 whole entry R3C/R58T/K186N): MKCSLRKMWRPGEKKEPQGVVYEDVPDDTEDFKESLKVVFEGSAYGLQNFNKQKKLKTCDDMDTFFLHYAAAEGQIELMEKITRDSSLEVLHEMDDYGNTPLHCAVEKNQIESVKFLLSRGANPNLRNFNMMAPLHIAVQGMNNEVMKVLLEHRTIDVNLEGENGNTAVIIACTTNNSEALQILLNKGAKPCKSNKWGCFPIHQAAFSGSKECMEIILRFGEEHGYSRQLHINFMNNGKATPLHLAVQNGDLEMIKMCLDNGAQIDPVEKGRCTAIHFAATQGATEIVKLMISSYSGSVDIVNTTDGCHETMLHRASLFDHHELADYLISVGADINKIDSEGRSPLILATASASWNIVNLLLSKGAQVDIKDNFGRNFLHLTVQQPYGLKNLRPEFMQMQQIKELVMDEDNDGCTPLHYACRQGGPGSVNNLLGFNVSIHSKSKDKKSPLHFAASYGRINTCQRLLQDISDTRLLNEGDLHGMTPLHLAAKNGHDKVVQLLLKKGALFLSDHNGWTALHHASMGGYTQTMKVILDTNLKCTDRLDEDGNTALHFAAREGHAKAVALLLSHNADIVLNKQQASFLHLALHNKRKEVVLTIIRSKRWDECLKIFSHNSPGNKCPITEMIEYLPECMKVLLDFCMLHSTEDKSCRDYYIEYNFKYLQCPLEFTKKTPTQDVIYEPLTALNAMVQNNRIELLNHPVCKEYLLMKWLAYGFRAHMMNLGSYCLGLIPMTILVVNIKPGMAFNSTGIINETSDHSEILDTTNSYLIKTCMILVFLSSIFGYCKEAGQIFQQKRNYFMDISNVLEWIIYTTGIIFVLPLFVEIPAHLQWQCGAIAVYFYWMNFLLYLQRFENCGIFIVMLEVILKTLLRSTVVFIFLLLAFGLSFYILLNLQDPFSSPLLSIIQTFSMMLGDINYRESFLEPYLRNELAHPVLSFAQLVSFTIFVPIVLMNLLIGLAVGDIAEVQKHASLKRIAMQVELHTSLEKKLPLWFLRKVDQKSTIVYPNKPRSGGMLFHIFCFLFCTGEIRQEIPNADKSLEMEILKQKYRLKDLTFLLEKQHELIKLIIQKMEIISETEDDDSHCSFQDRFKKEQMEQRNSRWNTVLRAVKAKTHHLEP

[3] = biological target: T2, human TRPV1 (Homo sapiens, UniProt Q8NER1, M315I/T336M); test: Intracellular calcium (Fluo-4, FLIPR) activation of TRPV1 cells by GRAS compounds; assay type: cell-based; conditions: for activation at 1000 µM: 1 mM; for activation at 1000 µM / activation at 100 µM: read-out: V1 activation, % of agonist value; for TRPV1 activation selectivity, in words: statement in description, see Table 1(i);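 as to all read-outs here: TRPV1-expressing cells, FLIPR fluorescence at 488/514 nm with baseline subtracted, sampled every 2 s for 10 min after adding compound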
T2 construct: expressed in transfected cells; pcDNA3 control cells
T2 sequence (Q8NER1 whole entry M315I/T336M): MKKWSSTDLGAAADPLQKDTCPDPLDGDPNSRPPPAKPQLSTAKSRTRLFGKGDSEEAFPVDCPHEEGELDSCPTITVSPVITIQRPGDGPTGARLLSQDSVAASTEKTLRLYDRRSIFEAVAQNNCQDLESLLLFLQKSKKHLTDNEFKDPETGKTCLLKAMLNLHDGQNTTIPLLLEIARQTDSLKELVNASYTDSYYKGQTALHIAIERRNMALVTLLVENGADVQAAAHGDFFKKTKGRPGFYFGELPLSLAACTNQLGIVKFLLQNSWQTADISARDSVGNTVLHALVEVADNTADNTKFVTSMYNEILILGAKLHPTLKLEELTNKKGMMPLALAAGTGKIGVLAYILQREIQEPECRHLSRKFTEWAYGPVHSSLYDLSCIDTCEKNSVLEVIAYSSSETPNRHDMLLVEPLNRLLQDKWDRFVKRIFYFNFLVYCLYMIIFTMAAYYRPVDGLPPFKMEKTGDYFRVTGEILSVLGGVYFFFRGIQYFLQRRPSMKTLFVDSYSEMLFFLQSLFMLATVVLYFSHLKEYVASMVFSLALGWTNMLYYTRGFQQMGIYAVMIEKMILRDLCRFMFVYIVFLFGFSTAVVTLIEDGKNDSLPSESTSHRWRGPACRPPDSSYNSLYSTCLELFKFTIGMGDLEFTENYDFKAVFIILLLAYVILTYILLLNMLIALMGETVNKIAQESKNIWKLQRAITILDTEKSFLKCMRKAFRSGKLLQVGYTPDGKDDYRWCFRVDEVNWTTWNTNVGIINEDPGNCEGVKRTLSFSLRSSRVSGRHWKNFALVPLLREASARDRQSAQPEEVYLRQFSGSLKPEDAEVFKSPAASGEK

[4] = Table 1(a), 1 mM, relative to AITC 30 μM, average of three plates
[5] = Table 1(a), average of three plates
[6] = Table 1(a), relative to capsaicin 350 nM, average of three plates
[7] = Table 1(d), 100 μM (*), relative to AITC 30 μM
[8] = Table 1(i), 100 μM (*), relative to AITC 30 μM or capsaicin 350 nM depending on compound, […]
[9] = Table 1(i), 100 μM (*), relative to capsaicin 350 nM, […]
[10] = Table 1(b), 1 mM, relative to AITC 30 μM
[11] = Table 1(b), relative to capsaicin 350 nM
[12] = Table 1(a), 100 μM (*), relative to AITC 30 μM
[13] = Table 1(a), 100 μM (*), relative to capsaicin 350 nM

C=CC(=O)CCCCC [1-Octen-3-one]
A1V1 activation, % of agonist value [1, 4]: 98.9%
activation at 1000 µM [2, 5]: 118%
activation at 1000 µM [3, 6]: 63.2%

CC(=O)C(=O)c1ccccc1 [1-Phenyl-1,2-propanedione]
A1V1 activation, % of agonist value [1, 4]: 105.5%
A1V1 activation, % of agonist value [1, 7]: 71.4%
activation at 1000 µM [2, 5]: 98.6%
activation at 100 µM ([2]; Table 1(d), 100 μM (*)): 100%
activation at 1000 µM [3, 6]: 66.6%

Cc1ccc(C)c(O)c1C [2,3,6-Trimethylphenol]
A1V1 activation, % of agonist value [1, 4]: 91.4%
activation at 1000 µM [2, 5]: 90%
activation at 1000 µM [3, 6]: 74.8%

CC1=NC(C)OC1C (stereo not drawn) [2,4,5-Trimethyl-3-oxazoline]
A1V1 activation, % of agonist value [1, 8]: 4.1%
activation at 100 µM ([2]; Table 1(i), 100 μM (*), […]): 2.1%
activation at 100 µM [3, 9]: 101%
TRPV1 activation selectivity, in words [3]: TRPV1 activators which do not modulate TRPA1 or TRPA1V1

c1ccc(CCCc2ccccn2)cc1 [2-(3-Phenylpropyl)pyridine]
A1V1 activation, % of agonist value [1, 4]: 74.53%
activation at 1000 µM [2, 5]: 76%
activation at 1000 µM [3, 6]: 21.5%

O=Cc1cc2ccccc2o1 [2-Benzofurancarboxaldehyde]
A1V1 activation, % of agonist value [1, 4]: 102.3%
activation at 1000 µM [2, 5]: 91%
activation at 1000 µM [3, 6]: 57.6%

CCCCc1ccco1 [2-Butylfuran]
A1V1 activation, % of agonist value [1, 4]: 62.77%
activation at 1000 µM [2, 5]: 68.5%
activation at 1000 µM [3, 6]: 20.2%

O=C1CCCC1C1CCCC1 (stereo not drawn) [2-Cyclopentylcyclopentanone]
A1V1 activation, % of agonist value [1, 10]: 90.8%
activation at 1000 µM ([2]; Table 1(b)): 25%
activation at 1000 µM [3, 11]: 24%

CCc1ccco1 [2-Ethylfuran]
A1V1 activation, % of agonist value [1, 8]: 1.8%
activation at 100 µM ([2]; Table 1(i), 100 μM (*), […]): 1.2%
activation at 100 µM [3, 9]: 58.7%
TRPV1 activation selectivity, in words [3]: TRPV1 activators which do not modulate TRPA1 or TRPA1V1

Cc1nccnc1SCc1ccco1 [2-Furfurylthio-3-methylpyrazine]
A1V1 activation, % of agonist value [1, 12]: 80.9%
activation at 100 µM ([2]; Table 1(a), 100 μM (*)): 80.7%
activation at 100 µM [3, 13]: 31.3%

C=Cc1ccc(O)c(OC)c1 [2-Methoxy-4-vinylphenol]
A1V1 activation, % of agonist value [1, 4]: 81.90%
activation at 1000 µM [2, 5]: 74.8%
activation at 1000 µM [3, 6]: 20.7%

CCC(C)COC(=O)CC(C)C (stereo not drawn) [2-Methylbutyl isovalerate]
A1V1 activation, % of agonist value ([1]; Table 1(i), 1 mM, relative to AITC 30 μM or capsaicin 350 nM depending on compound, […]): 2.1%
activation at 1000 µM ([2]; Table 1(i), […]): 1.7%
activation at 1000 µM ([3]; Table 1(i), relative to capsaicin 350 nM, […]): 75.3%
TRPV1 activation selectivity, in words [3]: TRPV1 activators which do not modulate TRPA1 or TRPA1V1

Sc1ccc2ccccc2c1 [2-Napthlaenthiol]
A1V1 activation, % of agonist value [1, 12]: 85.2%
A1 activation, % of agonist value ([2]; Table 1(a), 100 μM (*)): 66.3%
V1 activation, % of agonist value [3, 13]: 120.3%

CCCc1ccccc1O [2-Propylphenol]
A1V1 activation, % of agonist value [1, 4]: 183.8%
activation at 1000 µM [2, 5]: 126%
activation at 1000 µM [3, 6]: 96.9%

CC(CC=O)CC(C)(C)C (stereo not drawn) [3,5,5-Trimethylhexanal]
A1V1 activation, % of agonist value [1, 10]: 114.7%
activation at 1000 µM ([2]; Table 1(b)): 133%
activation at 1000 µM [3, 11]: 217%

CCC(S)C(C)=O (stereo not drawn) [3-Mercapto-2-pentanone]
A1V1 activation, % of agonist value [1, 4]: 72.6%
A1V1 activation, % of agonist value ([1]; Table 1(c), 100 μM (*), relative to AITC 30 μM): 100%
activation at 1000 µM [2, 5]: 92%
activation at 100 µM ([2]; Table 1(c), 100 μM (*)): 103%
activation at 1000 µM [3, 6]: 59.2%

CC(=O)C(C)S (stereo not drawn) [3-Mercaptobutanone, 3-Mercapto-2-butanone]
A1V1 activation, % of agonist value [1, 10]: 80.9%
A1V1 activation, % of agonist value [1, 7]: 53.3%
activation at 1000 µM ([2]; Table 1(b)): 50.4%
activation at 100 µM ([2]; Table 1(d), 100 μM (*)): 68.9%
activation at 1000 µM [3, 11]: 63.8%

CC(C)C(C=O)c1ccccc1 (stereo not drawn) [3-Methyl-2-Phenylbutyraldehyde]
A1V1 activation, % of agonist value [1, 4]: 93.08%
activation at 1000 µM [2, 5]: 90.6%
activation at 1000 µM [3, 6]: 75.8%

CCCC1CC(=O)C=C(C)C1 (stereo not drawn) [3-Methyl-5-propyl-2-cyclohexen-1-one]
A1V1 activation, % of agonist value [1, 10]: 101.0%
activation at 1000 µM ([2]; Table 1(b)): 69%
activation at 1000 µM [3, 11]: 59.2%

CCCCC=CC(C)=O [3-Octen-2-one]
A1V1 activation, % of agonist value [1, 4]: 45.60%
activation at 1000 µM [2, 5]: 52.7%
activation at 1000 µM [3, 6]: 30%

OCCCc1ccccc1 [3-Phenylpropanol]
A1V1 activation, % of agonist value [1, 10]: 64.94%
activation at 1000 µM ([2]; Table 1(b)): 51.4%
activation at 1000 µM [3, 11]: 32%

Source: patent publication US9427415B2, “Methods and compositions for modifying sensorial perception” (The Procter & Gamble Company, priority 2014, dated 2016)
